In PubChem BioAssay (NCI):
Where “and” joins values, the source holds several entries; their conditions need not be identical. Equal entries are not always repeated.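 Cells were grown in 96-well plates and exposed to each compound for 48 hours at five concentrations; endpoints were interpolated linearly between bracketing concentrations, or set to the highest concentration if not reached. Abbreviation: GI50, concentration required for 50% inhibition of growth. Definition used: TGI = concentration required for complete inhibition of growth.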

Experiments:
Assay in all cases: NCI-60 cell line screen, 48 h
SF-539 CNS = system: SF-539 CNS
NCI-H460 lung = system: NCI-H460 lung
DMS 273 small cell lung = system: DMS 273 small cell lung
BT-549 breast = system: BT-549 breast
NCI-H226 lung = system: NCI-H226 lung
ACHN renal = system: ACHN renal
OVCAR-3 ovarian = system: OVCAR-3 ovarian
SK-MEL-5 melanoma = system: SK-MEL-5 melanoma
DLD-1 colon = system: DLD-1 colon
NCI/ADR-RES ovarian = system: NCI/ADR-RES ovarian

| SMILES | TGI (SF-539 CNS) | TGI (NCI-H460 lung) | TGI (DMS 273 small cell lung) | TGI (BT-549 breast) | TGI (NCI-H226 lung) | TGI (ACHN renal) | TGI (OVCAR-3 ovarian) | TGI (SK-MEL-5 melanoma) | TGI (DLD-1 colon) | GI50 (SF-539 CNS) | GI50 (NCI/ADR-RES ovarian) | TGI (NCI/ADR-RES ovarian) | GI50 (NCI-H460 lung) | GI50 (BT-549 breast) | GI50 (NCI-H226 lung) | GI50 (ACHN renal) | GI50 (OVCAR-3 ovarian) | GI50 (SK-MEL-5 melanoma) | GI50 (DLD-1 colon) |
| --- | --- | --- | --- | --- | --- | --- | --- | --- | --- | --- | --- | --- | --- | --- | --- | --- | --- | --- | --- |
| COc1ccc2c(=O)c(-c3cc(OC)c(OC)cc3OC)coc2c1 | 43.1 µM | > 100 µM | > 100 µM | > 100 µM | > 100 µM | > 100 µM | 15.3 µM | > 100 µM | > 100 µM |  |  |  |  |  |  |  |  |  |  |
| CCC/C=C/C=C/C(=O)OC1/C(=C/C(=O)OC)CC2CC(C(C)O)OC(=O)CC(O)CC3CC(OC(C)=O)C(C)(C)C(O)(CC4C/C(=C/C(=O)OC)CC(/C=C/C(C)(C)C1(O)O2)O4)O3 (stereo unspecified) | > 12.5 µM | 10.9 µM and 11 µM and > 12.5 µM | > 10.9 µM and 11 µM | 11 µM and > 12.5 µM | > 10.9 µM and 11 µM and > 12.5 µM | 11 µM and > 12.5 µM | > 10.9 µM and 11 µM and > 12.5 µM | 10.9 µM and 11 µM and > 12.5 µM | > 10.9 µM and 11 µM | > 11 µM | > 12.5 µM | > 12.5 µM | 9.82 µM and 2.81 µM and > 12.5 µM | > 12.5 µM | > 10.9 µM and 9.74 µM | > 12.5 µM | > 10.9 µM and 8.33 µM and > 12.5 µM | 7.86 µM and 1.9 µM and > 12.5 µM |  |
| NC(CSC(c1ccccc1)(c1ccccc1)c1ccccc1)C(=O)O (stereo unspecified) | 10.6 µM and 3.01 µM and 3.26 µM | 21 µM and 15.8 µM | 1.55 µM | 57.8 µM and > 100 µM | 90.1 µM and > 100 µM | 79.5 µM and > 100 µM | 9.48 µM and 27.9 µM and 13 µM | 51.1 µM and 42.5 µM | 125 µM | 0.874 µM and 0.459 µM | 10.9 µM | 48.2 µM and > 100 µM | 2.07 µM | 4.88 µM | 22.1 µM | 20.2 µM and 9.65 µM | 2.46 µM and 2.18 µM | 0.601 µM and 0.41 µM | 0.831 µM |
| CCCCC[C@@H]1CCCC2NC(CCCCCO[Si](c3ccccc3)(c3ccccc3)C(C)(C)C)CCC21 (stereo partly specified) | 29.8 µM | 31.7 µM | 32.4 µM |  | 36.6 µM | 26.5 µM | 30.7 µM | 35.3 µM | 28.1 µM |  |  |  |  |  |  |  |  |  |  |
| O=C1c2ccccc2C(=O)c2c1ccc1conc21 | 3.87 µM | 12.2 µM | 8.17 µM | 3.68 µM | 14.9 µM | 3.75 µM | 0.974 µM | 4.83 µM | 7.15 µM |  |  | 8.45 µM |  |  |  |  |  |  |  |
| O=C(O)CCC(O)=C1S(=O)(=O)OCCOS1(=O)=O | > 100 µM | > 100 µM | > 100 µM | > 100 µM | > 100 µM | > 100 µM | > 100 µM | > 100 µM | > 100 µM |  |  | > 100 µM |  |  |  |  |  |  |  |
| CC1(Cl)C(=O)NC(=O)N([C@H]2C[C@H](O)[C@@H](CO)O2)C1N=[N+]=[N-] (stereo partly specified) | > 100 µM | > 100 µM | > 100 µM |  | > 100 µM | > 100 µM | > 100 µM | > 100 µM | > 100 µM |  |  |  |  |  |  |  |  |  |  |
| CC(=O)CC[N+](C)(C)C | 82.9 µM | > 90 µM | 53.2 µM | 62.6 µM | 88.2 µM | 26.5 µM | 40.7 µM | 59.6 µM | 35.4 µM |  |  | > 76.9 µM |  |  |  |  |  |  |  |
| COc1ccc2nc3cc(Cl)ccc3c(Sc3ccc(N)cc3)c2c1 | 27.9 µM | 21.1 µM | 23.5 µM |  | 34.3 µM | 21.9 µM | 21.5 µM | 25.3 µM | 19.8 µM |  |  |  |  |  |  |  |  |  |  |
| Cn1c(=O)nc2n(-c3ccc(Br)cc3)c3ccccc3nc-2c1=O | 19.6 µM | 11.9 µM | 14 µM |  | 28.5 µM | 13.2 µM | 7.6 µM | 4.12 µM | 36.3 µM |  |  |  |  |  |  |  |  |  |  |
| O=C1NC(c2ccccc2)(c2ccccc2)C(=O)N1CCCCCCN1C(=O)NC(c2ccccc2)(c2ccccc2)C1=O | 81.3 µM | > 100 µM | > 100 µM |  | > 100 µM | > 100 µM | > 100 µM | 57.9 µM | > 100 µM |  |  |  |  |  |  |  |  |  |  |
